Data as given in the NIST ThermoML archive (doi:10.1021/je050074w).

Experiment: an = mass per volume of the nth substance listed, in kg/m3
Conditions: Wilhelmy plate method

CCCCCCCCCCCCOS(=O)(=O)[O-].[Na+] [sodium dodecyl sulfate] + O
surface tension liquid-gas [mN/m]
Conditions	a1 = 0.00627	a1 = 0.0157	a1 = 0.0273	a1 = 0.0338
288.15 K	71.99	65.28	64.13	69.24
289.15 K	71.91	65.17	64.05	69.1
290.15 K	71.74	65	63.88	68.89
291.15 K	71.58	64.83	63.72	68.76
292.15 K	71.41	64.67	63.56	68.59
293.15 K	71.24	64.48	63.37	68.45
294.15 K	71.07	64.32	63.19	68.28
295.15 K	70.89	64.17	63.02	68.11
296.15 K	70.76	64.03	62.88	67.97
297.15 K	70.59	63.86	62.74	67.78
298.15 K	70.43	63.71	62.6	67.63
299.15 K	70.29	63.57	62.49	67.44
300.15 K	70.16	63.41	62.36	67.29
301.15 K	70.01	63.26	62.25	67.11
302.15 K	69.84	63.08	62.11	66.95
303.15 K	69.68	62.94	62.01	66.77
304.15 K	69.53	62.76	61.9	66.61
305.15 K	69.39	62.66	61.83	66.42
306.15 K	69.23	62.52	61.72	66.25
307.15 K	69.08	62.32	61.62	66.04
308.15 K	68.94	62.16	61.54	–
